Data taken from ChEMBL document CHEMBL2040546, “Identification of influenza endonuclease inhibitors using a novel fluorescence polarization assay” (ACS Chem Biol, 2012).

Experiment: Cytotoxicity
Assay type: functional, Canis lupus familiaris, MDCK
Conditions: not given

| Structure (SMILES) | CC50 [µM] |
| --- | --- |
| O=C(NCC1CC1)c1nc(-c2cnccn2)[nH]c(=O)c1O | > 60 |
| O=C(NCc1ccccc1)c1nc(-c2cnccn2)[nH]c(=O)c1O | > 60 |
| Cc1ccc(CNC(=O)c2nc(-c3cnccn3)[nH]c(=O)c2O)cc1 | > 60 |
| O=C(NCc1ccc(F)cc1)c1nc(-c2cnccn2)[nH]c(=O)c1O | > 60 |
| COc1ccc(CNC(=O)c2nc(-c3cnccn3)[nH]c(=O)c2O)cc1 | > 60 |
| CC(NC(=O)c1nc(-c2cnccn2)[nH]c(=O)c1O)c1ccccc1 (centres undefined) | > 60 |
| C[C@H](NC(=O)c1nc(-c2cnccn2)[nH]c(=O)c1O)c1ccccc1 | > 60 |
| C[C@@H](NC(=O)c1nc(-c2cnccn2)[nH]c(=O)c1O)c1ccccc1 | > 60 |
| Cc1ccc([C@@H](C)NC(=O)c2nc(-c3cnccn3)[nH]c(=O)c2O)cc1 | > 60 |
| C[C@@H](NC(=O)c1nc(-c2cnccn2)[nH]c(=O)c1O)C1CCCCC1 | 7.1 |
| O=C(N[C@H](CO)c1ccccc1)c1nc(-c2cnccn2)[nH]c(=O)c1O | > 60 |
| O=C(NC1CCCc2ccccc21)c1nc(-c2cnccn2)[nH]c(=O)c1O (centres undefined) | 10.2 |
| O=C(O)c1nc(-c2cnccn2)nc(O)c1O | > 60 |

Same assay, conditions: Influenza A virus, MDCK

| Structure (SMILES) | CC50 [µM] |
| --- | --- |
| O=C(NCCc1ccccc1)c1nc(-c2cnccn2)[nH]c(=O)c1O | > 60 |
